The data set can be described thus: Dynamic vapor sorption. The format is physicochemical. To be noted: 25 °C, 5% to 95% RH. The procedure:
Moisture sorption analyses were utilized using a VTI-SA vapor sorption analyzer (TA Instruments, New Castle, DE, USA). API was placed into the sample holder. The percentage of relative humidity (% RH) in the chamber was increased from 5% to 95% RH for moisture adsorption, followed by a decrease in % RH from 95% to 5% for moisture desorption. A drying phase (i.e., 40 °C, less than 0.01% weight loss in 2 min) was set to run before to the analysis. The temperature was set at a 25 °C throughout the analysis. The program criteria were set to 0.0001% weight change or 2 min stability of weight gained or lost before the program could proceed to the next set parameter.

For the compound `CN1CCN(Cc2ccc(-c3cnc(N4CCOC(Cn5nnc6ncc(-c7cnn(C)c7)nc65)C4)nc3)cc2)CC1` (stereo not shown) [ABN401], the moisture adsorption result is “relatively less adsorptive to moisture”.
